In patent publication US9242937B2, “Pharmaceutically active disubstituted pyridine derivatives” (Bayer Intellectual Property GmbH, priority 2011, dated 2016) one finds IC50 and Kd data, which are given here for 10 molecules.

Test [1] has as its system NF-kappaB reporter gene activation in HEK293 cells. In words: NF-kappaB reporter assay. The class given is cell-based. The note with it: Homo sapiens, pNFkBluc reporter, 20 ng/ml TNF alpha, 5 h, read-out: NF-kappaB activation (activity range), IC50. The method, then: Cells were maintained in RPMI cell culture medium+glutamine (PAN Biotech GmbH, Aidenbach, Germany) supplemented with 10% fetal calf serum (PAA Laboratories GmbH, Pasching, Austria) and grown at 37° C., 5% CO2. HEK293 cells grown to 50% confluence were transfected with the Amaxa® Cell Line Nucleofector® Kit V (Lonza, Basel, Switzerland, catalog # VCA-1003). Transfections were performed according to manufacturer's optimized protocol for transfection of HEK293 cells. In brief, 2×10^5 cells were transfected with 5 μg highly purified plasmid DNA. Cells were transfected with a NF-kappa B reporter plasmid (pNFkBluc), pTALluc for control, or pMAXGFP for transfection control. After transfection, cells were taken up in 500 μL RPMI1640 cell culture medium, incubated for 1 h at 37° C., and 4.5 ml DMEM without phenol red were added per transfection. Transfected cells were seeded in 96 well plates (Greiner Bio-One, Frickenhausen, Germany, catalog #655098) with 100 μL cell suspension per well and incubated for 48 h. To each well, 100 μL DMEM with 2× concentrated compound diluted from 10 mM DMSO stocks, or 100 μL DMEM with 0.4% DMSO for control wells, was added. The compounds of general formula (I) summarized in Table 6 were used in this assay. Cells were stimulated with 20 ng/ml TNF alpha, and plates were incubated for 5 h at 37° C./5% CO2. Cell culture supernatants were removed to leave 100 μl medium per well, followed by addition of 100 μl Bright Glo luciferase assay reagent (Promega, Madison, Wis., USA, catalog # E2620), and shaking for 5 minutes in the dark. Luminescence was measured with a Victor Photospectrometer (Perkin Elmer, Waltham, Mass., USA). IC50 values were calculated with the software Excel Fit (IDBS, Guildford, UK) from 2-fold dilution series comprising at least 10 concentrations in duplicates.
In general terms: Reporter assays use an easily measured gene product as a stand-in for the process of interest.

The target in test [2] is T1, CDK2/CyclinA (Homo sapiens, UniProt P24941).
T1 construct: purchased Proqinase
Put plainly: LanthaScreen Eu Kinase Binding Assay, CDK2. The note with it: tracer 236, read-out: CDK2 (activity range), Kd. The method, then:
This protocol describes how the LanthaScreen Eu Kinase Binding Assay was performed to determine dissociation constants (Kd) of compounds of general formula (I) and CDK/Cyclin complexes. The principle behind this assay is based upon the binding and displacement of an Alexa Fluor 647-labeled tracer, which binds to the active site of kinases. Binding of the tracer to the kinase is detected using a Eu-labeled antibody. Simultaneous binding of both the tracer and antibody to the kinase gives rise to a FRET-signal. Binding of an inhibitor to the kinase competes for binding with the tracer, resulting in a loss of FRET.
The compounds of general formula (I) summarized in Table 1 were diluted from a 10 mM DMSO stock solution 1:10 in a total volume of 15 μL DMSO. This compound predilution was then serial diluted 1:3 over 8 steps in DMSO and briefly spun down. Each compound solution was now diluted 1:33.33 in kinase buffer (HEPES: 20 mM, pH: 8.0; MgCl2: 10 mM; DTT: 1 mM; Brij-35: 0.01%), mixed thoroughly and spun down. For every sample, 5 μL of the diluted compound were mixed with 5 μL tracer working solution (e.g. 60 nM tracer 236 in kinase buffer for CDK2/Cyclin A) and 5 μL CDK/Cyclin/Anti-GST-AB-working solution (e.g. 15 nM CDK2/Cyclin A, 1:250 dilution of Anti-GST-AB in kinase buffer) in a well of a small volume 384 well plate (Corning Incorporated, Corning, N.Y., USA; order no. 3673). The tracer concentration was adjusted to its dissociation constant (Kd) for the CDK/Cyclin, which was 30 nM for CDK2/Cyclin A, CDK7/Cyclin H and CDK9/Cyclin T1, 20 nM for CDK8/Cyclin C, and 35 nM for CDK9/Cyclin K. For negative controls, in each well 5 μL of DMSO working solution (3% DMSO diluted in kinase buffer) was mixed with 5 μL Anti-GST-AB working solution (e.g. 1:250 dilution of Anti-GST-AB in kinase buffer for CDK2/Cyclin A) and 5 μL Tracer working solution (e.g. 60 nM Tracer 236 in kinase buffer for CDK2/Cyclin A). For positive controls, in each well 5 μL of DMSO working solution (3% DMSO diluted in kinase buffer) was mixed with 5 μL CDK/Cyclin/Anti-GST-AB-working solution: (e.g. 15 nM CDK2/Cyclin A, 1:250 dilution of Anti-GST-AB in kinase buffer) and 5 μL Tracer working solution (e.g. 60 nM Tracer 236 in kinase buffer for CDK2/Cyclin A). Positive and negative controls were calculated from at least 8 different sample wells. The 384 well plates were mixed in a Teleshaker plate mixer (Beckman Coulter, Brea, Calif., USA) at 2000 rpm for 40 sec, and incubated for 1 h at room temperature before reading. The FRET signal was measured at 340 nm excitation, 665 nm and 615 nm emission (for the kinase tracer and LanthaScreen Eu-AB, respectively) with an Envision spectrophotometer (Perkin Elmer, Waltham, Mass., USA) with 50 μs delay and 300 μs integration time. Kd values were determined from the sigmoidal dose response curves with the software Quattro Workflow (Quattro GmbH, Munich, Germany).
A general note: Time-resolved FRET reads energy transfer from a long-lived donor to a nearby acceptor.

Test [3] relates to Hela cells. Put plainly: Cell viability assay, Hela cells. The class given is cell-based. As to conditions: Homo sapiens, 72 h, Cell Titer Glo, read-out: Cell Viability - Hela cells (activity range), IC50. The method, then:
Hela- or MDAMB468-Cells were maintained in RPMI 1640 or McCoy's 5A cell culture medium+glutamine (PAN Biotech GmbH, Aidenbach, Germany; order no. P04-22100; P04-05500) supplemented with 10% fetal calf serum “Gold” (PAA Laboratories GmbH, Pasching, Austria; order no. A15-151) and grown at 37° C., 5% CO2. For the cell viability assay, cells were seeded with a density of 400 (Hela cells, DSMZ Braunschweig order no. ACC57) or 800 (MDAMB468 cells, ATCC order no. HTB-132) per well in 25 μL in 384-well plates (Greiner Bio-One, Frickenhausen, Germany; order no. 781080). After overnight incubation at 37° C./5% CO2, 25 nL or 75 nL compound were added to each sample well by using BIOMEK FXP Laboratory Automation Workstation (Beckman Coulter, USA). Wells with cells and 0.1% or 0.3% DMSO in culture medium were used as positive controls, wells with cells and 10 μM staurosporine in culture medium were used as negative controls. The cells were incubated with the compounds for 72 h at 37° C./5% CO2. For measurement of cell viability 25 μL Cell Titer Glo reagent (Promega, Madison, USA; order no. G7573), 1:2 diluted with cell culture medium, was added to each well. The 384 well-plates were placed for 2 min on a orbital microplate shaker and incubated for further 10 min at room temperature to stabilize the luminescence signal. Luminescence was measured by Envision Plate Reader (Perkin Elmer, USA). IC50 values were calculated with the software Excel Fit (IDBS, Guildford, UK) from 3-fold dilution series comprising at least 8 concentrations in duplicates.
In general terms: Cellular ATP, detected with luciferase, serves as a proxy for viable cell number.

The term IC50 denotes the concentration that gives 50% inhibition. By Kd is commonly meant a measure of binding affinity in units of concentration.

Bounds are passed on as bounds.

`COc1ccccc1-c1ccnc(Nc2ccccc2)c1` [Compound B1, 4-(2-Methoxyphenyl)-N-phenylpyridin-2-amine]: the 50% inhibitory concentration (IC50) in test [1] was above 10000 nM.
In the case of `COc1ccccc1-c1ccnc(Nc2cccc([N+](=O)[O-])c2)c1` [Compound C1, 4-(2-Methoxyphenyl)-N-(3-nitrophenyl)pyridin-2-amine], in test [1], the IC50 is 1000 to 10000 nM.
For `COc1ccccc1-c1ccnc(Nc2cccc(S(N)(=O)=O)c2)c1` [Compound D1, 3-[(4-(2-Methoxyphenyl)pyridin-2-yl)amino]benzenesulfonamide], the IC50 in test [1] and in test [3] was 100 to 1000 nM in each case. Moreover, the equilibrium dissociation constant (Kd) in test [2] was below 100 nM.
Consider `COc1ccccc1-c1ccnc(Nc2ccc(S(N)(=O)=O)cc2)c1` [Compound E1, 4-[(4-(2-Methoxyphenyl)pyridin-2-yl)amino]benzenesulfonamide], for which the concentration for half-maximal inhibition (IC50) in test [1] was 1000 to 10000 nM; in test [3] it was above 10000 nM. In test [2], the Kd is below 100 nM.
In the same order, the values of `COc1ccccc1-c1ccnc(Nc2cccc(S(C)(=O)=O)c2)c1` [Compound F1, 4-(2-Methoxyphenyl)-N-(3-(methylsulfonyl)phenyl)pyridin-2-amine] are 1000 to 10000 nM, 1000 to 10000 nM and 100 to 1000 nM.
On to `COc1cc(F)ccc1-c1ccnc(Nc2cccc(CS(N)(=O)=O)c2)c1` [Compound G1, [3-((4-(4-Fluoro-2-methoxyphenyl)pyridin-2-yl)amino)phenyl]-methanesulfonamide], for which the results for the concentration for half-maximal inhibition (IC50) in test [1] and in test [3] were 100 to 1000 nM and 1000 to 10000 nM, respectively. For the same molecule, the Kd in test [2] fell in the range of 100 to 1000 nM.
Turning to `COc1cc(F)ccc1-c1ccnc(Nc2cccc(CS(=O)(=O)N(C)C)c2)c1` [Compound G3, 1-[3-((4-(4-Fluoro-2-methoxyphenyl)pyridin-2-yl)amino)phenyl]-N,N-dimethylmethanesulfonamide], in test [2], the equilibrium dissociation constant (Kd) fell in the range of 100 to 1000 nM. The IC50 in test [3] is above 10000 nM.
In the same order, the values of `COc1cc(F)ccc1-c1ccnc(Nc2cccc(NS(C)(=O)=O)c2)c1` [Compound J1, N-[3-((4-(4-Fluoro-2-methoxyphenyl)pyridin-2-yl)amino)phenyl]-methanesulfonamide] are below 100 nM and 1000 to 10000 nM.
In the same order, the values of `COc1cc(F)ccc1-c1ccnc(Nc2cccc(NC(C)=O)c2)c1` [Compound J2, N-[3-((4-(4-Fluoro-2-methoxyphenyl)pyridin-2-yl)amino)phenyl]-acetamide] are 100 to 1000 nM and above 10000 nM.
As for `CCCNS(=O)(=O)Cc1cccc(Nc2cc(-c3ccc(F)cc3OC)ccn2)c1` [Compound K1, 1-[3-((4-(4-Fluoro-2-methoxyphenyl)pyridin-2-yl)amino)phenyl]-N-propylmethanesulfonamide], the dissociation constant (Kd) in test [2] was in the range of 100 to 1000 nM. The IC50 in test [3] was above 10000 nM.
